# Measurements published in patent US9156831B2, “Chemical compounds” (ASTRAZENECA AB, priority 2013, dated 2015).
# Legend:
# Experiment in all cases: Cell proliferation assay (MTS)
# Assay type in all cases: cell-based, human
# HEP3B = system: HEP3B
# Description: (§1) The sensitivity of a panel of human cancer cell lines to the effects of compounds was determined in a standard proliferation assay.
# (§2) Cells were plated in 96 well plates at densities of 1000-6000 cells per well in RPMI media containing 10% FBS. After incubation at 37° C. for 16 hours, various concentrations of compound were added to the assay plates. After incubation for an additional 72 h, the viable cells were determined by the addition of MTS reagent (Promega #3582) to each well for 2 h. MTS is a tetrazolium salt that is bioreduced by metabolically active cells in the presence of an electron coupling reagent to formazan. The formazan product was then quantitated by absorbance at 490 nm, as an indicator of the relative number of live cells. In order to determine the GI50 (concentration at which growth of cells was inhibited by 50%) the relative number of cells present at the time of drug addition was determined by comparison with the MTS readout before the drug was added, and this value was subtracted from the 72 hr value of untreated cells as a measure of cell growth during the assay.
# AZ521 = system: AZ521
# Description: as §1, §2
# A549 = system: A549
# Description: as §1, §2
# HEPG2 = system: HEPG2
# Description: (§3) The sensitivity of a panel of human cancer cell lines to the effects of compounds was determined in a standard proliferation assay. Cell lines were sourced through the AstraZeneca Cell Bank.
# as §2
# SNU668 = system: SNU668
# Description: as §1
# (§4) Cells were plated in 96 well plates at densities of 1000-6000 cells per well in RPMI media containing 10% FBS. After incubation at 37° C. for 16 hours, various concentrations of compound were added to the assay plates. After incubation for an additional 72 h, the viable cells were determined by the addition of MTS reagent (Promega #3582) to each well for 2 h. […] The formazan product was then quantitated by absorbance at 490 nm, as an indicator of the relative number of live cells. In order to determine the GI50 (concentration at which growth of cells was inhibited by 50%) the relative number of cells present at the time of drug addition was determined by comparison with the MTS readout before the drug was added, and this value was subtracted from the 72 hr value of untreated cells as a measure of cell growth during the assay.
# T24 = system: T24
# Description: as §3, §2
# H1869 = system: H1869
# Description: as §1, §2
# HCC95 = system: HCC95
# Description: as §3, §2
# C99 = system: C99
# Description: as §1, §2
# HCC1419 = system: HCC1419
# Description: as §1, §2
# CCK81 = system: CCK81
# Description: as §1, §2
# H1703 = system: H1703
# Description: as §3, §2
# LS180 = system: LS180
# Description: as §1, §4
# H2126 = system: H2126
# Description: as §3, §2
# COLO205 = system: COLO205
# Description: as §1, §4
# HCC15 = system: HCC15
# Description: as §1, §2
# LNCAPCLONEFGC = system: LNCAPCLONEFGC
# Description: as §3, §2
# OCIAML2 = system: OCIAML2
# Description: as §1, §2
# SKCO1 = system: SKCO1
# Description: as §1, §4
# HCC1954 = system: HCC1954
# Description: as §1, §2
# H226 = system: H226
# Description: as §1, §2
# ZR751 = system: ZR751
# Description: as §3, §2
# H1299 = system: H1299
# Description: as §1, §2
# […] = system: […]
# Description: as §1, §2
# H1975 = system: H1975
# Description: as §3, §2
# QGP1 = system: QGP1
# Description: as §1, §4
# SNU601 = system: SNU601
# Description: as §3, §2
# HCCC9810 = system: HCCC9810
# Description: as §1, §2
# PANC0327 = system: PANC0327
# Description: as §3, §2
# OCILY19 = system: OCILY19
# Description: as §1, §2
# H647 = system: H647
# Description: as §1, §2
# 5637 = system: 5637
# Description: as §1, §2
# SW900 = system: SW900
# Description: as §3, §2
# SNU886 = system: SNU886
# Description: as §1, §4
# LUDLU1 = system: LUDLU1
# Description: as §1, §4
# SW780 = system: SW780
# Description: as §1, §2
# HUPT4 = system: HUPT4
# Description: as §1, §2
# ARH77 = system: ARH77
# Description: as §1, §2
# SW620 = system: SW620
# Description: as §1, §4
# K562 = system: K562
# Description: as §1, §2
# H1437 = system: H1437
# Description: as §1, §2
# H2085 = system: H2085
# Description: as §1, §2
# KP4 = system: KP4
# Description: as §3, §2
# [1] = Homo sapiens, Colon, PIK3CA MUT
# [2] = Homo sapiens, Bladder, PIK3CA WT
smiles,measurement,setting,value
"CCn1nc(C2CCN(C(=O)CCO)CC2)nc1-c1cnc(N)c(-c2nnc(C(C)(C)C)o2)n1 [Example 3, 1-(4-(5-(5-amino-6-(5-tert-butyl-1,3,4-oxadiazol-2-yl)pyrazin-2-yl)-1-ethyl-1H-1,2,4-triazol-3-yl)piperidin-1-yl)-3-hydroxypropan-1-one]",Category,HEP3B,Resistant (resistant (GI50>1.0 μM))
same,GI50,"HEP3B; Homo sapiens, Liver, PIK3CA WT",6.69 µM
same,Category,AZ521,Resistant (resistant (GI50>1.0 μM))
same,GI50,"AZ521; Homo sapiens, AZ-521, Duodenum, PIK3CA WT",2.06 µM
same,Category,A549,Resistant (resistant (GI50>1.0 μM))
same,GI50,"A549; Homo sapiens, Lung, PIK3CA WT",10.2 µM
same,Category,HEPG2,Resistant (resistant (GI50>1.0 μM))
same,GI50,"HEPG2; Homo sapiens, Liver, PIK3CA WT",30 µM
same,Category,SNU668,Resistant (resistant (GI50>1.0 μM))
same,GI50,"SNU668; Homo sapiens, Stomach, PIK3CA WT",15.5 µM
same,Category,T24,Resistant (resistant (GI50>1.0 μM))
same,GI50,"T24; Homo sapiens, T-24, Bladder, PIK3CA WT",30 µM
same,Category,H1869,Resistant (resistant (GI50>1.0 μM))
same,GI50,"H1869; Homo sapiens, Lung, PIK3CA WT",6.04 µM
same,Category,HCC95,Resistant (resistant (GI50>1.0 μM))
same,GI50,"HCC95; Homo sapiens, Lung, PIK3CA WT",3.11 µM
same,Category,C99,Resistant (resistant (GI50>1.0 μM))
same,GI50,"C99; Homo sapiens, Colon, PIK3CA WT",1.22 µM
same,Category,HCC1419,Sensitive (sensitive (GI50<=1.0 μM))
same,GI50,"HCC1419; Homo sapiens, Breast, PIK3CA WT",0.78 µM
same,Category,CCK81,Sensitive (sensitive (GI50<=1.0 μM))
same,GI50,CCK81; [1],0.803 µM
same,Category,H1703,Sensitive (sensitive (GI50<=1.0 μM))
same,GI50,"H1703; Homo sapiens, NCI-H1703, Lung, PIK3CA WT",0.514 µM
same,Category,LS180,Resistant (resistant (GI50>1.0 μM))
same,GI50,LS180; [1],9.94 µM
same,Category,H2126,Resistant (resistant (GI50>1.0 μM))
same,GI50,"H2126; Homo sapiens, NCI-H2126, Lung, PIK3CA WT",12.9 µM
same,Category,COLO205,Resistant (resistant (GI50>1.0 μM))
same,GI50,"COLO205; Homo sapiens, COLO 205, Colon, PIK3CA WT",8.93 µM
same,Category,HCC15,Resistant (resistant (GI50>1.0 μM))
same,GI50,"HCC15; Homo sapiens, Lung, PIK3CA WT",30 µM
same,Category,LNCAPCLONEFGC,Resistant (resistant (GI50>1.0 μM))
same,GI50,"LNCAPCLONEFGC; Homo sapiens, LNCaP-Clone-FGC, Prostate, PIK3CA WT",3.01 µM
same,Category,OCIAML2,Resistant (resistant (GI50>1.0 μM))
same,GI50,"OCIAML2; Homo sapiens, OCI-AML2, Blood/lymph, PIK3CA WT",30 µM
same,Category,SKCO1,Resistant (resistant (GI50>1.0 μM))
same,GI50,"SKCO1; Homo sapiens, SK-CO-1, Colon, PIK3CA WT",1.13 µM
same,Category,HCC1954,Sensitive (sensitive (GI50<=1.0 μM))
same,GI50,"HCC1954; Homo sapiens, Breast, PIK3CA MUT",0.879 µM
same,Category,H226,Resistant (resistant (GI50>1.0 μM))
same,GI50,"H226; Homo sapiens, NCI-H226, Lung, PIK3CA WT",10.1 µM
same,Category,ZR751,Resistant (resistant (GI50>1.0 μM))
same,GI50,"ZR751; Homo sapiens, ZR-75-1, Breast, PIK3CA WT",3.56 µM
same,Category,H1299,Resistant (resistant (GI50>1.0 μM))
same,GI50,"H1299; Homo sapiens, NCI-H1299, Lung, PIK3CA WT",30 µM
same,GI50,[…]; Homo sapiens,0.792 µM
same,Category,[…]; […],Sensitive (sensitive (GI50<=1.0 μM))
same,Category,H1975,Resistant (resistant (GI50>1.0 μM))
same,GI50,"H1975; Homo sapiens, NCI-H1975, Lung, PIK3CA MUT",2.26 µM
same,Category,QGP1,Resistant (resistant (GI50>1.0 μM))
same,GI50,"QGP1; Homo sapiens, QGP-1, Pancreas, PIK3CA WT",4.87 µM
same,Category,SNU601,Sensitive (sensitive (GI50<=1.0 μM))
same,GI50,"SNU601; Homo sapiens, SNU-601, Stomach, PIK3CA MUT",0.506 µM
same,Category,HCCC9810,Resistant (resistant (GI50>1.0 μM))
same,GI50,"HCCC9810; Homo sapiens, Bile duct, PIK3CA WT",10 µM
same,Category,PANC0327,Resistant (resistant (GI50>1.0 μM))
same,GI50,"PANC0327; Homo sapiens, PANC-03-27, Pancreas, PIK3CA WT",8.03 µM
same,Category,OCILY19,Resistant (resistant (GI50>1.0 μM))
same,GI50,"OCILY19; Homo sapiens, OCI-LY19, Blood/lymph, PIK3CA WT",30 µM
same,Category,H647,Resistant (resistant (GI50>1.0 μM))
same,GI50,"H647; Homo sapiens, NCI-H647, Lung, PIK3CA WT",11.3 µM
same,Category,5637,Resistant (resistant (GI50>1.0 μM))
same,GI50,5637; [2],9.63 µM
same,Category,SW900,Resistant (resistant (GI50>1.0 μM))
same,GI50,"SW900; Homo sapiens, Lung, PIK3CA WT",30 µM
same,Category,SNU886,Resistant (resistant (GI50>1.0 μM))
same,GI50,"SNU886; Homo sapiens, SNU-886, Liver, PIK3CA WT",15.6 µM
same,Category,LUDLU1,Resistant (resistant (GI50>1.0 μM))
same,GI50,"LUDLU1; Homo sapiens, LUDLU-1, Lung, PIK3CA WT",4.65 µM
same,Category,SW780,Resistant (resistant (GI50>1.0 μM))
same,GI50,SW780; [2],19.2 µM
same,Category,HUPT4,Sensitive (sensitive (GI50<=1.0 μM))
same,GI50,"HUPT4; Homo sapiens, HuP-T4, Pancreas, PIK3CA WT",0.641 µM
same,Category,ARH77,Resistant (resistant (GI50>1.0 μM))
same,GI50,"ARH77; Homo sapiens, ARH-77, Blood/lymph, PIK3CA WT",30 µM
same,Category,SW620,Resistant (resistant (GI50>1.0 μM))
same,GI50,"SW620; Homo sapiens, SW-620, Colon, PIK3CA WT",13.4 µM
same,Category,K562,Resistant (resistant (GI50>1.0 μM))
same,GI50,"K562; Homo sapiens, Blood/lymph, PIK3CA WT",30 µM
same,Category,H1437,Resistant (resistant (GI50>1.0 μM))
same,GI50,"H1437; Homo sapiens, NCI-H1437, Lung, PIK3CA WT",30 µM
same,Category,H2085,Resistant (resistant (GI50>1.0 μM))
same,GI50,"H2085; Homo sapiens, Lung, PIK3CA WT",1.83 µM
same,Category,KP4,Resistant (resistant (GI50>1.0 μM))
same,GI50,"KP4; Homo sapiens, KP-4, Pancreas, PIK3CA WT",15.1 µM
